ChEMBL document CHEMBL1201862, “PubChem BioAssay data set” (2004)
The source made the active and inactive calls.

Legend:
Nonstructural protein 1 = Nonstructural protein 1 (Influenza A virus, UniProt Q194T2); type: functional, Influenza A virus (A/California/07/2009(H1N1))
[1] = target: T1, Matrix metalloproteinase-14 (Homo sapiens, UniProt P50281); assay: Dose Response confirmation of uHTS hits for a small molecule inhibitors of MT1-MMP activation in a fluorescence assay set 1.; type: functional
[2] = loss of viability in HepG2 cells – cell-based, CellTiter-Glo, cherry-picked, cytotoxicity control for Shn3 inhibitor project, dose response (AID 624134); type: functional
Protein Wnt-3a = Protein Wnt-3a (Mus musculus, UniProt P27467); assay: antagonism of Wnt3a pathway luciferase reporter – Wnt-LIGHT cells, luminescence, selectivity assay for Gli-SUFU antagonist project, dose response (AID 651570); type: functional; settings: read-out: IC50_Mean;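 note: Wnt-LIGHT reporter cells stimulated with conditioned medium from Wnt3a-producing cells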
Protein Wnt-3a, sequence (P27467 whole entry): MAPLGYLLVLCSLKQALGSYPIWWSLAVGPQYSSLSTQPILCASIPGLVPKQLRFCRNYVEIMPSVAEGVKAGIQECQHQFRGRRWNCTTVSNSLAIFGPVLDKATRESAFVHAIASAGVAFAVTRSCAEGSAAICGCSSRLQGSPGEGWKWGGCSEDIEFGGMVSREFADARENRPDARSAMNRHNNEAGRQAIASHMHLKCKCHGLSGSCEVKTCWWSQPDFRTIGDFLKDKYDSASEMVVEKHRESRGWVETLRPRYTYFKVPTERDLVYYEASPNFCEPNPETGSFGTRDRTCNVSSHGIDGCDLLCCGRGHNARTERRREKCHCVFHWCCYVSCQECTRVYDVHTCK

[3] = non-specific 3'UTR reporter inhibition in Clone20-Shn3RL – cell-based, Renilla luciferase, cherry-picked, counter-screen for Shn3 inhibitor project, dose response (AID 624133); type: functional
[4] = target: COUP transcription factor 2 (Homo sapiens, UniProt P24468); assay: Luminescence-based cell-based high throughput dose response assay to identify inhibitors of COUP-TFII (NR2F2).; type: functional;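 note: HEK293 cells transiently cotransfected with COUP-TFII expression vector and reporter; luciferase reporter luminescence driven by COUP-TFII from the pX2-168 reporter plasmid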
COUP transcription factor 2, sequence (P24468 whole entry): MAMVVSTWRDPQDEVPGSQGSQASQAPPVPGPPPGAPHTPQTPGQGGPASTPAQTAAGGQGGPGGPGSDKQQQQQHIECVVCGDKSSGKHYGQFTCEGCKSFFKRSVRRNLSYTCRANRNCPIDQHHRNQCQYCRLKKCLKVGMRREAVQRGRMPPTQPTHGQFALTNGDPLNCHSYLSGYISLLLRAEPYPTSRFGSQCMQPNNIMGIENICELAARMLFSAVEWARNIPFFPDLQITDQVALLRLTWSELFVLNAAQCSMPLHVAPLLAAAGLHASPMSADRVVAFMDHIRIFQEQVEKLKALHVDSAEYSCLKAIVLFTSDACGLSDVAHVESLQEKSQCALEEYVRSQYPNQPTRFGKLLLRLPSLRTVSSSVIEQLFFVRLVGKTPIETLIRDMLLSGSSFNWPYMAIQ

[5] = reduction of Shn3 3'UTR-driven luciferase in osteoblasts – cell-based, Clone20 osteoblasts, firefly luciferase, cherry-picked, dose response (AID 624132); type: functional;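 note: firefly luciferase luminescence from reporter carrying the Shn3 3'UTR in osteoblasts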
INS1 = assay: INS-1E survival protection against cytokine death – cell-based, luminescence, retest, dose response (AID 449756); type: functional; settings: Rattus norvegicus;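 note: cell death triggered by IL-1 beta plus TNF-alpha plus IFN-gamma mixture; protective hits raise ATP signal compared with cytokine alone wells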
H4 = assay: Luminescence Cell-Based Dose Response HTS to Identify Activators of 5'UTR Stem-Loop Driven Prion Protein mRNA Translation in H4 Neuroglioblastoma Cells. [Related pubchem assays: 1829 (Project Summary), 1814 (Primary HTS)]; type: functional; settings: Homo sapiens
[6] = target: Peroxisome proliferator-activated receptor gamma/Nuclear receptor corepressor 2 (Homo sapiens, UniProt P37231+Q9Y618); assay: Counterscreen for NR2E3 inverse agonists: TR-FRET-based biochemical high throughput dose response assay to identify inverse agonists of the interaction between peroxisome proliferator-activated receptor gamma (PPARg) and nuclear receptor co-repressor 2 (NCOR2).; type: functional
[7] = target: Photoreceptor-specific nuclear receptor (Homo sapiens, UniProt Q9Y5X4); assay: ligands suppressing NR2E3 nuclear receptor activity – biochemical, TR-FRET, dose response (AID 463256); type: functional
Photoreceptor-specific nuclear receptor, sequence (Q9Y5X4 whole entry): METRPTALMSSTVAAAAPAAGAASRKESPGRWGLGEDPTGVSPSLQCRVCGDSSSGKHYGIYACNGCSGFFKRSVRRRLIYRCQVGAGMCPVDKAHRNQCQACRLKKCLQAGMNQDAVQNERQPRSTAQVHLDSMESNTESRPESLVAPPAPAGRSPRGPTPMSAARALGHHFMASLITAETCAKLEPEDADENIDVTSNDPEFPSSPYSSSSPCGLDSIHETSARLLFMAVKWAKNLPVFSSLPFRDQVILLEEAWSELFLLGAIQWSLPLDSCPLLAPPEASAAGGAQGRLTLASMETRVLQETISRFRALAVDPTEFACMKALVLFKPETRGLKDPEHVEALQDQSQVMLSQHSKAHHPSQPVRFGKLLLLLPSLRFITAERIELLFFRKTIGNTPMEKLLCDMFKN

[8] = Luminescence Cell-Based Dose Response to Identify Activators of 5'UTR Stem-Loop Driven Prion Protein mRNA Translation in H4-C Neuroglioblastoma Cells. [Related pubchem assays: 1829 (Project Summary), 1814 (Primary HTS)]; type: functional
[9] = target: Fructose-bisphosphate aldolase (Mycobacterium tuberculosis, UniProt P9WQA3); assay: Fluorescence-based biochemical high throughput dose response assay for inhibitors of the fructose-bisphosphate aldolase (FBA) of M. tuberculosis.; type: functional
Fructose-bisphosphate aldolase, sequence (P9WQA3 whole entry): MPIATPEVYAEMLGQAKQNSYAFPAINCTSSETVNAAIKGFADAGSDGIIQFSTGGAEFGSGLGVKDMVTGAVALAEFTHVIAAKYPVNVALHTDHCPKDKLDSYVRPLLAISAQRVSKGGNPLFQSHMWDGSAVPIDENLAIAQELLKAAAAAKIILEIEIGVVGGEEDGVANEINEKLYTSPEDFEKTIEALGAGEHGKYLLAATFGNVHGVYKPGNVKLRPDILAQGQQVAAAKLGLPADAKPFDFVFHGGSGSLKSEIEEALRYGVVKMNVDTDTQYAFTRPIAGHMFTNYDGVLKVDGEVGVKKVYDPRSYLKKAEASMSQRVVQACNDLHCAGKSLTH

[10] = Luminescence Cell-Based Dose Response to Identify Activators of Luciferase Translation or Activity in H4-C Neuroglioblastoma Cells. [Related pubchem assays: 1829 (Project Summary), 1814 (Primary HTS)]; type: functional
[11] = Luminescence Cell-Based Dose Response HTS to Identify Activators of Luciferase Translation or Activity in H4 […] Cells. [Related pubchem assays: 1829 (Project Summary), 1814 (Primary HTS)]; type: functional
[12] = Luminescence Cell-Based Dose Confirmation to Identify Activators of 5'UTR Stem-Loop Driven Alpha-Synuclein mRNA Translation in H4 Neuroglioblastoma Cells. [Related pubchem assays: 1829 (Project Summary), 1814 (Primary HTS)]; type: functional
[13] = optical artefact potency, substrate without enzyme – biochemical, fluorescence intensity, triplicate, artefact control for kallikrein-7 zymogen activator project, dose response (AID 720493)
Kallikrein-7 = Kallikrein-7 (Homo sapiens, UniProt P49862); assay: Fluorescence Intensity-based biochemical primary high throughput dose response assay to identify activators of kallikrein-7 (K7) zymogen.
Kallikrein-7, sequence (P49862 whole entry): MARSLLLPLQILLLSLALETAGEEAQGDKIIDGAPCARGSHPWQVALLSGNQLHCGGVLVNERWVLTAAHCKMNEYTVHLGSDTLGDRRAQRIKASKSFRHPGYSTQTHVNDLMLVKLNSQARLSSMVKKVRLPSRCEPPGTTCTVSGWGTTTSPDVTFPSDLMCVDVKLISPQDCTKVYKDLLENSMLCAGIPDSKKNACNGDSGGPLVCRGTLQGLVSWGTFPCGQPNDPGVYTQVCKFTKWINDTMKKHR

[14] = target: Endoplasmic reticulum aminopeptidase 1 (Homo sapiens, UniProt Q9NZ08); assay: inhibition of human ERAP1 enzyme activity – biochemical, cherry-pick, set 2, plate reader, dose response (AID 743314)
Endoplasmic reticulum aminopeptidase 1, sequence (Q9NZ08 whole entry): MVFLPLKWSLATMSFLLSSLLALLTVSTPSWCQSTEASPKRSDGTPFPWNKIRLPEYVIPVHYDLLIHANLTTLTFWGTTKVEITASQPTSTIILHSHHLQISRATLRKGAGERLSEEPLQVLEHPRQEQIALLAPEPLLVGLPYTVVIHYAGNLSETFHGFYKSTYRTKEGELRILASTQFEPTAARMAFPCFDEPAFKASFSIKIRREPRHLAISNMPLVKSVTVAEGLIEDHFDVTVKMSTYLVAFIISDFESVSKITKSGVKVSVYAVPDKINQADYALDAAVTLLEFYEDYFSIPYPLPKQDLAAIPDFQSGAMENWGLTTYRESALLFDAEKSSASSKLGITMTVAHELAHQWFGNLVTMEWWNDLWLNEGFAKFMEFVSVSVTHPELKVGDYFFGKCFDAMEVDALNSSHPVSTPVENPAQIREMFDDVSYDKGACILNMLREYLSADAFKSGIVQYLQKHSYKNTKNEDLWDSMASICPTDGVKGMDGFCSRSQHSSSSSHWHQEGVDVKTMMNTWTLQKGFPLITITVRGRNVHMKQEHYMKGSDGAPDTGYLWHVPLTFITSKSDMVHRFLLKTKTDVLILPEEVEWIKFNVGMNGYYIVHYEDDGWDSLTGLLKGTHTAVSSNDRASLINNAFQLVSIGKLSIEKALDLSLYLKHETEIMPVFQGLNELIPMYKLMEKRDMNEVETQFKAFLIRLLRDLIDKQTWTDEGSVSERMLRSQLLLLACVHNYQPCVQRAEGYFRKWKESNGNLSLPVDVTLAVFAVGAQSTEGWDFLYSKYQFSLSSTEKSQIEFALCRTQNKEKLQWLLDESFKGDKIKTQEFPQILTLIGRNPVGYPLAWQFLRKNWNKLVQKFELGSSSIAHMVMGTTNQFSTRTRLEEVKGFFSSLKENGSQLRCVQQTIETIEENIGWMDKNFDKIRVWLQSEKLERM

[15] = viability loss in HepG2 hepatoma cells – cell-based, ATP luminescence, cherry-pick, activator set 2, cytotoxicity control, dose response (AID 1053143); type: functional
[16] = target: T1, Matrix metalloproteinase-14; assay: Dose Response confirmation of uHTS hits for a small molecule inhibitors of MT1-MMP activation in a fluorescence assay set 2.; type: functional
Vero = assay: viability loss in Vero cells – cell-based, plate reader, cherry-pick samples, cytotoxicity control, dose response (AID 687020); type: functional; settings: Chlorocebus sabaeus
Paired box protein Pax-8 = Paired box protein Pax-8 (Homo sapiens, UniProt Q06710); assay: PAX8 transcriptional activity inhibition in RMG-I – RMG-I cells, luciferase, cherry-pick, dose response (AID 687027); type: functional, cell-based;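 note: luciferase reporter driven by Pax8 target thyroperoxidase promoter measured by SteadyGlo luminescence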
Paired box protein Pax-8, sequence (Q06710 whole entry): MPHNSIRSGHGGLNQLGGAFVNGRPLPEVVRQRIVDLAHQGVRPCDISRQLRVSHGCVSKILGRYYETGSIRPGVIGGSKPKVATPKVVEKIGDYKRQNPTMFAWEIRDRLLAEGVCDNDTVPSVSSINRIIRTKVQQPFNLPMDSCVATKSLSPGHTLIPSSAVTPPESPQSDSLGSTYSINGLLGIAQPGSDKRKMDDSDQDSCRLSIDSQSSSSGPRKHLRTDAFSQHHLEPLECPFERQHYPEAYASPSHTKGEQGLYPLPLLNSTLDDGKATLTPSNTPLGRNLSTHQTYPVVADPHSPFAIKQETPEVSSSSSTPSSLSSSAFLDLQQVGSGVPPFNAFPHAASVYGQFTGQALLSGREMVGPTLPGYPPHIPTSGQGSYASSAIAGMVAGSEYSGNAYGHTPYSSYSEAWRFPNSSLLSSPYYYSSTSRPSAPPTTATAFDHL

A549 = assay: viability loss in A549 cells – cell-based, plate reader, cherry-pick samples, cytotoxicity control, dose response (AID 687028); type: functional; settings: Homo sapiens
BHK-21 = assay: viability loss in BHK-21 cells – cell-based, plate reader, cherry-pick samples, cytotoxicity control, dose response (AID 687030); type: functional; settings: Mesocricetus auratus
[17] = inhibitors of EBV LMP1 NF-kappaB signaling – cell-based, luciferase reporter, luminescence, dry powder, set 2, dose response (AID 624376); type: functional
[18] = LMP1-induced NF-kB luciferase signal inhibition – cell-based, EBV LMP1, dry powder, set 2, dose response (AID 624361); type: functional
HEK293 = assay: viability loss in HEK293T cells – cell-based, ATP luminescence, cherry-pick samples, cytotoxicity control, dose response (AID 687005); type: functional; settings: Homo sapiens;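 note: cells exposed to compound for 48 hours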
[19] = HEK293 Cytotoxicity Assay Measured in Cell-Based System Using Plate Reader - 7071-01_Inhibitor_Dose_CherryPick_Activity_Set2.; type: functional
HeLa = assay: viability loss in HeLa cells – cell-based, ATP luminescence, cherry-pick samples, cytotoxicity control, dose response (AID 687004); type: functional; settings: Homo sapiens

Nonstructural protein 1, sequence (Q194T2 whole entry): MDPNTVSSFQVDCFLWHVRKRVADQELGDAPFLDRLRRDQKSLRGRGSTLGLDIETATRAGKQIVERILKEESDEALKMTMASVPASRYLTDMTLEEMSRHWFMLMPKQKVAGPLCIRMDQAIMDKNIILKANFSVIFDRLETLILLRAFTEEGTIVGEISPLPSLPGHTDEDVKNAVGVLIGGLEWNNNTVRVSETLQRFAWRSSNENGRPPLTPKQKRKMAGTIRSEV

**Q.** Which results are given for `Cc1cc(N(CCO)CCO)ccc1N=Nc1cc(F)ccc1F`?
**A.** IC50 (Nonstructural protein 1): 19.2 µM (active); IC50 [1]: 31.6 µM (inactive)

**Q.** For `Cc1cccn2c(=O)c3cc(C(N)=S)c(=N)n(CCCOC(C)C)c3nc12`, which AC50 (cells) is on record?
**A.** Its AC50 is 0.626 µM (active).

**Q.** Which results are given for `O=C(c1cc(COc2cccc3cnccc23)on1)N1CCCC(CCCO)C1` (configuration not stated)?
**A.** AC50 [2]: 1.98 µM (active); IC50 (Protein Wnt-3a): 0.338 µM (active); AC50 [3]: 1.14 µM (active); IC50 [4]: 2.58 µM (active); AC50 [5]: 0.519 µM (active); AC50 (INS1): 1.41 µM (active)

**Q.** What does the source list for `CN1CCSc2ccc(C(=O)Nc3ccc(Cl)cc3)cc21`?
**A.** EC50 (H4): 0.101 µM (active); IC50 [6]: 8.59 µM (active); IC50 [7]: 9.21 µM (active); EC50 [8]: 0.208 µM (active); IC50 [9]: > 1.11 µM (active); EC50 [10]: 0.366 µM (active); EC50 [11]: 0.148 µM (active); EC50 [12]: 0.321 µM (active)

**Q.** With `CN1CCN(Cc2c(O)c(Cl)cc3c(-c4ccccc4)cc(=O)oc23)CC1` as the compound, how does the EC50 [13] read?
**A.** The EC50 was > 0.286 µM (active).

**Q.** What about the EC50 (Kallikrein-7) of the same compound?
**A.** Its EC50 is 68.3 µM (inactive).

**Q.** Which AC50 [14] does the source give for `CCc1c(C)c2cc(Cl)c(O)c(CN(C)C)c2oc1=O` here?
**A.** Its AC50 is 5.35 µM (active).

**Q.** With `Cc1c(Cl)ccc2sc(NC(=O)c3ccco3)nc12` as the compound, how does the AC50 [15] read?
**A.** Its AC50 is 17.4 µM (active).

**Q.** For `CN(CCCC(=O)O)c1ccc(N=Nc2ccc([N+](=O)[O-])cc2)cc1`, which IC50 (Nonstructural protein 1) is on record?
**A.** Its IC50 is 9.48 µM (active).

**Q.** What about the IC50 [16] of the same compound?
**A.** The IC50 was 18.9 µM (active).

**Q.** With `CCCCCc1c(-c2ccccc2OC)ncn1CCc1ccccc1OC` as the compound, how does the AC50 (Vero) read?
**A.** The AC50 was 3.91 µM (active).

**Q.** And the AC50 (Paired box protein Pax-8)?
**A.** The AC50 was 24.9 µM (active).

**Q.** What about the AC50 (A549) of the same compound?
**A.** Its AC50 is 13.9 µM (active).

**Q.** With `COc1ccc2c3c([nH]c2c1)[C@H](CO)N(C(=O)Nc1cccc(F)c1)CC31CN(S(=O)(=O)c2ccccc2)C1` as the compound, how does the AC50 (BHK-21) read?
**A.** Its AC50 is 34.1 µM (active).

**Q.** Which results are given for `CC(=O)N(C)C[C@@H]1Oc2cc(C#Cc3ccc(F)cc3)ccc2S(=O)(=O)N([C@H](C)CO)C[C@H]1C`?
**A.** AbsAC35 [17]: 109.84 µM; AbsAC35 [18]: 57.53 µM

**Q.** What does the source list for `COCCNC(=O)C[C@H]1C=C[C@@H](NS(=O)(=O)c2ccc(C)cc2)[C@H](CO)O1`?
**A.** AC50 (HEK293): 23.9 µM (active); AC50 [19]: 23.9 µM (active); AC50 (HeLa): 19.9 µM (active)
